# Activity calls are given as the source filed them. No cut-off for these calls is given here.
# Assays:
# [1] = target: T1, Aurora kinase A (Homo sapiens) (UniProt O14965); test: Binding affinity to purified recombinant full-length Aurora A (unknown origin) assessed as covalent irreversible complex formation at 2.4 uM irradiated for 15 mins with near-UV light by SDS-PAGE and Western blot method
# T1 sequence (whole entry): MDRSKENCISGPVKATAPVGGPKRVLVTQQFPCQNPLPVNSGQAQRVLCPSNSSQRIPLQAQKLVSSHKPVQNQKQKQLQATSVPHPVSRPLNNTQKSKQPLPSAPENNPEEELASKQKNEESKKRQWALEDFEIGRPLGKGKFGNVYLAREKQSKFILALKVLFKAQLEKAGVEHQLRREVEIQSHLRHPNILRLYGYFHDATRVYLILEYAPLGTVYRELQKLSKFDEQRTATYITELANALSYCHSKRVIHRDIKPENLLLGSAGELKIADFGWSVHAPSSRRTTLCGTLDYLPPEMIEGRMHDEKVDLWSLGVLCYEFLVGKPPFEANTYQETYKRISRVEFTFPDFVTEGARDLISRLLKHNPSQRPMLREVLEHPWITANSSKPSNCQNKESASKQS
# [2] = target: T1, Aurora kinase A (Homo sapiens); test: Inhibition of purified recombinant full-length Aurora A (unknown origin) assessed as residual enzyme activity at 2 mM using kemptide analogue substrate and 5 mM ATP in presence of TPX2 (1 to 43 residues)
# [3] = target: T2, Aurora kinase A (Homo sapiens, UniProt O14965); test: Binding affinity to purified recombinant full-length Aurora A (unknown origin) by fluorescence polarisation/anisotropy based equilibrium binding assay
# T2 sequence (O14965 whole entry): T1 sequence (whole entry)
# [4] = target: T1, Aurora kinase A (Homo sapiens); test: Binding affinity to 1 uM and >100 uM VX689-prre-treated purified recombinant full-length Aurora A (unknown origin) assessed as covalent irreversible complex formation at 1 uM irradiated for 15 mins with near-UV light by SDS-PAGE and Western blot method
# [5] = target: T1, Aurora kinase A (Homo sapiens); test: Binding affinity to Aurora A in human HeLa cells assessed as covalent irreversible complex formation at 1 uM irradiated for 15 mins with near-UV light by SDS-PAGE and Western blot method; assay type: cell-based
# [6] = target: T1, Aurora kinase A (Homo sapiens); test: Binding affinity to Aurora A in human HeLa cells assessed as covalent irreversible complex formation at 1 uM irradiated for 15 mins with near-UV light in presence of Aurora A inhibitor MLN8237 by SDS-PAGE and Western blot method; assay type: cell-based
# [7] = target: T1, Aurora kinase A (Homo sapiens); test: Binding affinity to purified recombinant full-length Aurora A (unknown origin) assessed as covalent irreversible complex formation at 1.2 uM irradiated for 30 mins with near-UV light by SDS-PAGE and Western blot method
# [8] = target: T1, Aurora kinase A (Homo sapiens); test: Binding affinity to purified recombinant full-length Aurora A (unknown origin) assessed as covalent irreversible complex formation at 1.2 uM irradiated for 15 mins with near-UV light in presence of TPX2 by SDS-PAGE and Western blot method
# [9] = target: T1, Aurora kinase A (Homo sapiens); test: Binding affinity to purified recombinant full-length Aurora A (unknown origin) assessed as covalent irreversible complex formation at 2.4 uM irradiated for 15 mins with near-UV light in presence of TPX2 by SDS-PAGE and Western blot method
# [10] = target: T1, Aurora kinase A (Homo sapiens); test: Binding affinity to purified recombinant full-length Aurora A (unknown origin) assessed as covalent irreversible complex formation at 4.8 uM irradiated for 15 mins with near-UV light using 200 nM Aurora A by SDS-PAGE and Western blot method
Activity [1],Activity [2],Kd [3],Activity [4],Activity [5],Activity [6],Activity [7],Activity [8],Activity [9],Activity [10],Compound
8.5%,100%,–,–,–,–,–,–,–,–,CCN1/C(=C/C=C/C2=[N+](CC)c3ccc(S(=O)(=O)O)cc3C2(C)C)C(C)(CCCC(=O)NCCCC[C@@H](NC(=O)[C@H](CCCNC(=N)N)NC(=O)[C@H](CCCNC(=N)N)NC(=O)[C@H](CCCNC(=N)N)NC(=O)[C@H](CCCNC(=N)N)NC(=O)[C@H](CCCNC(=N)N)NC(=O)[C@H](CCCNC(=N)N)NC(=O)[C@H](Cc2ccc(C(=O)c3ccccc3)cc2)NC(=O)[C@H](Cc2ccc(C(=O)c3ccccc3)cc2)NC(=O)CCCNC(=O)[C@]2(Cc3cccc(Nc4nccs4)n3)CC[C@@H](Oc3cccc(Cl)c3F)CC2)C(N)=O)c2cc(S(=O)(=O)O)ccc21 (some centres not stated)
18%,71%,5.7 nM,inactive,Active,inactive,–,–,–,–,CCN1/C(=C/C=C/C2=[N+](CC)c3ccc(S(=O)(=O)O)cc3C2(C)C)C(C)(CCCC(=O)NCCCC[C@@H](NC(=O)[C@@H](CCCNC(=N)N)NC(=O)[C@@H](CCCNC(=N)N)NC(=O)[C@@H](CCCNC(=N)N)NC(=O)[C@@H](CCCNC(=N)N)NC(=O)[C@@H](CCCNC(=N)N)NC(=O)[C@@H](CCCNC(=N)N)NC(=O)[C@H](Cc2ccc(N=[N+]=[N-])cc2)NC(=O)[C@H](Cc2ccc(N=[N+]=[N-])cc2)NC(=O)CCNC(=O)[C@]2(Cc3cccc(Nc4nccs4)n3)CC[C@@H](Oc3cccc(Cl)c3F)CC2)C(N)=O)c2cc(S(=O)(=O)O)ccc21 (some centres not stated)
6.9%,110%,6.5 nM,–,–,–,–,–,–,–,CCN1/C(=C/C=C/C2=[N+](CC)c3ccc(S(=O)(=O)O)cc3C2(C)C)C(C)(CCCC(=O)NCCCC[C@@H](NC(=O)[C@@H](CCCNC(=N)N)NC(=O)[C@@H](CCCNC(=N)N)NC(=O)[C@@H](CCCNC(=N)N)NC(=O)[C@@H](CCCNC(=N)N)NC(=O)[C@@H](CCCNC(=N)N)NC(=O)[C@@H](CCCNC(=N)N)NC(=O)[C@@H](Cc2ccc(C(=O)c3ccccc3)cc2)NC(=O)[C@@H](Cc2ccc(C(=O)c3ccccc3)cc2)NC(=O)CCCNC(=O)[C@]2(Cc3cccc(Nc4nccs4)n3)CC[C@@H](Oc3cccc(Cl)c3F)CC2)C(N)=O)c2cc(S(=O)(=O)O)ccc21 (some centres not stated)
–,110%,0.44 nM,–,–,–,1.5%,Active,–,–,CN(C)c1ccc2c(-c3ccc(C(=O)NCCCC[C@H](NC(=O)[C@H](Cc4ccccc4)NC(=O)[C@H](Cc4ccccc4)NC(=O)CCCNC(=O)[C@]4(Cc5cccc(Nc6nccs6)n5)CC[C@@H](Oc5cccc(Cl)c5F)CC4)C(N)=O)cc3C(=O)O)c3ccc(=[N+](C)C)cc-3oc2c1
8.1%,100%,9.1 nM,–,–,–,–,–,–,–,CCN1/C(=C/C=C/C2=[N+](CC)c3ccc(S(=O)(=O)O)cc3C2(C)C)C(C)(CCCC(=O)NCCCC[C@@H](NC(=O)[C@@H](CCCNC(=N)N)NC(=O)[C@@H](CCCNC(=N)N)NC(=O)[C@@H](CCCNC(=N)N)NC(=O)[C@@H](CCCNC(=N)N)NC(=O)[C@@H](CCCNC(=N)N)NC(=O)[C@@H](CCCNC(=N)N)NC(=O)[C@H](Cc2ccc(C(=O)c3ccccc3)cc2)NC(=O)[C@H](Cc2ccc(C(=O)c3ccccc3)cc2)NC(=O)CCCNC(=O)[C@]2(Cc3cccc(Nc4nccs4)n3)CC[C@@H](Oc3cccc(Cl)c3F)CC2)C(N)=O)c2cc(S(=O)(=O)O)ccc21 (some centres not stated)
–,10%,–,–,–,–,–,–,–,–,N=C(N)NCCC[C@@H](NC(=O)[C@@H](CCCNC(=N)N)NC(=O)[C@@H](CCCNC(=N)N)NC(=O)[C@@H](CCCNC(=N)N)NC(=O)[C@@H](CCCNC(=N)N)NC(=O)[C@@H](CCCNC(=N)N)NC(=O)CCCCCNC(=O)[C@]1(Cc2cccc(Nc3nccs3)n2)CC[C@@H](Oc2cccc(Cl)c2F)CC1)C(N)=O
–,100%,–,–,Active,Active,9%,Active,–,–,CN(C)c1ccc2c(-c3ccc(C(=O)NCCCC[C@H](NC(=O)[C@H](Cc4ccc(C(=O)c5ccccc5)cc4)NC(=O)[C@H](Cc4ccc(C(=O)c5ccccc5)cc4)NC(=O)CCCNC(=O)[C@]4(Cc5cccc(Nc6nccs6)n5)CC[C@@H](Oc5cccc(Cl)c5F)CC4)C(N)=O)cc3C(=O)O)c3ccc(=[N+](C)C)cc-3oc2c1
15%,74%,6.1 nM,inactive,Active,inactive,–,–,–,–,CCN1/C(=C/C=C/C2=[N+](CC)c3ccc(S(=O)(=O)O)cc3C2(C)C)C(C)(CCCC(=O)NCCCC[C@@H](NC(=O)[C@H](CCCNC(=N)N)NC(=O)[C@H](CCCNC(=N)N)NC(=O)[C@H](CCCNC(=N)N)NC(=O)[C@H](CCCNC(=N)N)NC(=O)[C@H](CCCNC(=N)N)NC(=O)[C@H](CCCNC(=N)N)NC(=O)[C@@H](Cc2ccc(N=[N+]=[N-])cc2)NC(=O)[C@@H](Cc2ccc(N=[N+]=[N-])cc2)NC(=O)CCNC(=O)[C@]2(Cc3cccc(Nc4nccs4)n3)CC[C@@H](Oc3cccc(Cl)c3F)CC2)C(N)=O)c2cc(S(=O)(=O)O)ccc21 (some centres not stated)
11%,96%,2.5 nM,inactive,–,–,–,–,–,–,CCN1/C(=C/C=C/C2=[N+](CC)c3ccc(S(=O)(=O)O)cc3C2(C)C)C(C)(CCCC(=O)NCCCC[C@@H](NC(=O)[C@@H](CCCNC(=N)N)NC(=O)[C@@H](CCCNC(=N)N)NC(=O)[C@@H](CCCNC(=N)N)NC(=O)[C@@H](CCCNC(=N)N)NC(=O)[C@@H](CCCNC(=N)N)NC(=O)[C@@H](CCCNC(=N)N)NC(=O)[C@@H](Cc2ccc(N=[N+]=[N-])cc2)NC(=O)[C@@H](Cc2ccc(N=[N+]=[N-])cc2)NC(=O)CCNC(=O)[C@]2(Cc3cccc(Nc4nccs4)n3)CC[C@@H](Oc3cccc(Cl)c3F)CC2)C(N)=O)c2cc(S(=O)(=O)O)ccc21 (stereo in doubt)
40%,100%,1.9 nM,inactive,Active,Active,–,–,Active,inactive,CN(C)c1ccc2c(-c3ccc(C(=O)NCCCC[C@H](NC(=O)[C@H](Cc4ccc(N=[N+]=[N-])cc4)NC(=O)[C@H](Cc4ccc(N=[N+]=[N-])cc4)NC(=O)CCCNC(=O)[C@]4(Cc5cccc(Nc6nccs6)n5)CC[C@@H](Oc5cccc(Cl)c5F)CC4)C(N)=O)cc3C(=O)O)c3ccc(=[N+](C)C)cc-3oc2c1
–,73%,2.2 nM,inactive,–,–,20%,–,–,–,CN(C)c1ccc2c(-c3ccc(C(=O)NCCCOCCOCCOCCCNC(=O)[C@@H](Cc4ccc(N=[N+]=[N-])cc4)NC(=O)CCNC(=O)[C@]4(Cc5cccc(Nc6nccs6)n5)CC[C@@H](Oc5cccc(Cl)c5F)CC4)cc3C(=O)O)c3ccc(=[N+](C)C)cc-3oc2c1
–,67%,–,–,–,–,–,–,–,–,O=C(O)[C@]1(Cc2cccc(Nc3nccs3)n2)CC[C@@H](Oc2cccc(Cl)c2F)CC1

# Reference: ChEMBL document CHEMBL3600360, “Fluorescent photoaffinity probes for mitotic protein kinase Aurora A” (Bioorg Med Chem Lett, 2015)
